Test results published in US8937091B2 (Japan Science and Technology Agency, priority 2009, dated 2015).

Legend:
[1] = system: SOCE (store operated calcium entry) in CHO cells; experiment: Assay of SOCE (store operated calcium entry)-inhibiting action; assay type: cell-based, Chinese hamster; conditions: CHO cells, thapsigargin; for inhibition at 10 µM / inhibition at 30 µM / inhibition at 100 µM: Cricetulus griseus, CHO, read-out: SOCE level (percentage of inhibition)
Description: The extracellular fluid (i.e., medium) of cultured Chinese hamster ovary (CHO) cells was replaced by BSS containing no calcium. One minute later, a test compound was added. Two minutes later, 1 μM thapsigargin was added to cause depletion of the intracellular calcium store. Nine minutes later, calcium chloride (final concentration: 2 mM) was added to the extracellular fluid. The SOCE-inhibiting action levels at different compound concentrations after the addition of calcium chloride were determined as the percentage of inhibition (%) by evaluating the influence of the compound on the degree of increase in the intracellular calcium concentration.
(§1) Hereafter, the numerals in parentheses written after the TG level, the SOCE level, and the IICR level correspond to the test compound concentrations. The number following the name of each title compound used in the Examples below represents a compound ID number designated arbitrarily by the present inventors.

[2] = system: IICR (IP3 induced calcium release) in CHO cells; experiment: Assay of IICR (IP3 induced calcium release)-inhibiting action; assay type: cell-based, Chinese hamster; conditions: CHO cells, 10 μM ATP; for inhibition at 10 µM / inhibition at 30 µM / inhibition at 100 µM: Cricetulus griseus, CHO, read-out: IICR level (percentage of inhibition)
Description: The extracellular fluid (i.e., medium) of cultured CHO cells was replaced by BSS containing calcium. One minute later, a test compound was added. Two minutes later, 10 μM ATP was added. The IICR-inhibiting action levels at different compound concentrations after the addition of ATP were determined as the percentage of inhibition (%) by evaluating the influence of the compound on the degree of increase in the intracellular calcium concentration.
as §1

Compound `O=C(CCN1CCCCC1)c1ccc2c(Cl)cccc2c1` [Example 88, 2-piperidinoethyl-5-chloro-2-naphthylketone] has an inhibition at 10 µM ([1]; test compound 10 μmol) of 0%, an inhibition at 30 µM ([1]; test compound 30 μmol) of 0% and an inhibition at 100 µM ([1]; test compound 100 μmol) of 20%. It also gave an inhibition at 10 µM ([2]; test compound 10 μmol) of 10%, an inhibition at 30 µM ([2]; test compound 30 μmol) of 10% and an inhibition at 100 µM ([2]; test compound 100 μmol) of 100%.
`O=C(CCN(CCO)Cc1ccccc1)c1ccc2c(Cl)cccc2c1` [Example 89, 2-(N-2-hydroxyethylbenzyl)aminoethyl-5-chloro-2-naphthylketone] was tested, and the inhibition at 10 µM ([1]; test compound 10 μmol) was 0%, the inhibition at 30 µM ([1]; test compound 30 μmol) was 10% and the inhibition at 100 µM ([1]; test compound 100 μmol) was 80%. For the same compound, the inhibition at 10 µM ([2]; test compound 10 μmol) was 30%, the inhibition at 30 µM ([2]; test compound 30 μmol) was 80% and the inhibition at 100 µM ([2]; test compound 100 μmol) was 100%.
`CCC(CO)(CO)NCCC(=O)c1ccc2c(Cl)cccc2c1` [Example 90, 2-(N-1,1-dihydroxymethylpropyl)aminoethyl-5-chloro-2-naphthylketone] was tested, and the inhibition at 10 µM ([1]; test compound 10 μmol) was 0%, the inhibition at 30 µM ([1]; test compound 30 μmol) was 10% and the inhibition at 100 µM ([1]; test compound 100 μmol) was 30%. For the same compound, the inhibition at 10 µM ([2]; test compound 10 μmol) was 10%, the inhibition at 30 µM ([2]; test compound 30 μmol) was 20% and the inhibition at 100 µM ([2]; test compound 100 μmol) was 100%.
Work on `CCCCN(CCO)CCC(=O)c1ccc2c(Cl)cccc2c1` [Example 91, 2-(N-2-hydroxyethylbutyl)aminoethyl-5-chloro-2-naphthylketone] yielded an inhibition at 10 µM ([1]; test compound 10 μmol) of 0%, an inhibition at 30 µM ([1]; test compound 30 μmol) of 10% and an inhibition at 100 µM ([1]; test compound 100 μmol) of 90%. For the same compound, the inhibition at 10 µM ([2]; test compound 10 μmol) was 20%, the inhibition at 30 µM ([2]; test compound 30 μmol) was 90% and the inhibition at 100 µM ([2]; test compound 100 μmol) was 100%.
`C=CCC(=O)c1ccc2ccccc2c1` [Example 92, Allyl-2-naphthylketone] gave an inhibition at 10 µM ([1]; test compound 10 μmol) of 0%, an inhibition at 30 µM ([1]; test compound 30 μmol) of 0% and an inhibition at 100 µM ([1]; test compound 100 μmol) of 0%. The inhibition at 10 µM ([2]; test compound 10 μmol) was 0%, the inhibition at 30 µM ([2]; test compound 30 μmol) was 0% and the inhibition at 100 µM ([2]; test compound 100 μmol) was 30%.
Work on `C=CCC(=O)c1cccc2ccccc12` [Example 93, Allyl-1-naphthylketone] yielded an inhibition at 10 µM ([1]; test compound 10 μmol) of 0%, an inhibition at 30 µM ([1]; test compound 30 μmol) of 0% and an inhibition at 100 µM ([1]; test compound 100 μmol) of 30%. The inhibition at 10 µM ([2]; test compound 10 μmol) was 20%, the inhibition at 30 µM ([2]; test compound 30 μmol) was 70% and the inhibition at 100 µM ([2]; test compound 100 μmol) was 90%.
Work on `CC(C)(C)N(CCC(=O)c1ccccn1)Cc1ccccc1` [Example 94, 2-(N-t-butylbenzyl)aminoethyl-2-pyridylketone] yielded an inhibition at 10 µM ([1]; test compound 10 μmol) of 0%, an inhibition at 30 µM ([1]; test compound 30 μmol) of 0% and an inhibition at 100 µM ([1]; test compound 100 μmol) of 0%. The inhibition at 10 µM ([2]; test compound 10 μmol) was 30%, the inhibition at 30 µM ([2]; test compound 30 μmol) was 90% and the inhibition at 100 µM ([2]; test compound 100 μmol) was 100%.
Compound `O=C(CCN1CCCCC1)c1ccccn1` [Example 95, 2-piperidinoethyl-2-pyridylketone] has an inhibition at 10 µM ([1]; test compound 10 μmol) of 0%, an inhibition at 30 µM ([1]; test compound 30 μmol) of 0% and an inhibition at 100 µM ([1]; test compound 100 μmol) of 0%. It also gave an inhibition at 10 µM ([2]; test compound 10 μmol) of 0%, an inhibition at 30 µM ([2]; test compound 30 μmol) of 10% and an inhibition at 100 µM ([2]; test compound 100 μmol) of 10%.
In the case of `O=C(CCN(CCO)Cc1ccccc1)c1ccccn1` [Example 96], the inhibition at 10 µM ([1]; test compound 10 μmol) is reported as 0%, the inhibition at 30 µM ([1]; test compound 30 μmol) is reported as 0% and the inhibition at 100 µM ([1]; test compound 100 μmol) is reported as 0%. The inhibition at 10 µM ([2]; test compound 10 μmol) was 20%, the inhibition at 30 µM ([2]; test compound 30 μmol) was 30% and the inhibition at 100 µM ([2]; test compound 100 μmol) was 100%.
`COC(=O)C(CCC(=O)c1ccc2ccccc2c1)C(C)=O` (stereo not drawn) [Example 97, 3-acetyl-3-methoxycarbonylpropyl-2-naphthylketone] was tested, and the inhibition at 10 µM ([1]; test compound 10 μmol) was 0%, the inhibition at 30 µM ([1]; test compound 30 μmol) was 10% and the inhibition at 100 µM ([1]; test compound 100 μmol) was 90%. The inhibition at 10 µM ([2]; test compound 10 μmol) was 0%, the inhibition at 30 µM ([2]; test compound 30 μmol) was 10% and the inhibition at 100 µM ([2]; test compound 100 μmol) was 70%.
Work on `CCC(=O)C(CCC(=O)c1ccc2ccccc2c1)C(=O)OC` (stereo not drawn) [Example 98, 3-propionyl-3-methoxycarbonylpropyl-2-naphthylketone] yielded an inhibition at 10 µM ([1]; test compound 10 μmol) of 0%, an inhibition at 30 µM ([1]; test compound 30 μmol) of 10% and an inhibition at 100 µM ([1]; test compound 100 μmol) of 60%. For the same compound, the inhibition at 10 µM ([2]; test compound 10 μmol) was 0%, the inhibition at 30 µM ([2]; test compound 30 μmol) was 0% and the inhibition at 100 µM ([2]; test compound 100 μmol) was 0%.
In the case of `CN(CCC(=O)c1ccc2ccccc2c1)Cc1ccccc1` [Example 99, 2-(N-methylbenzyl)aminoethyl-2-naphthylketone], the “SOCE level (percentage of inhibition)” value ([1]; test compound 10 μmol) is reported as 0%, the “SOCE level (percentage of inhibition)” value ([1]; test compound 30 μmol) is reported as 0% and the “SOCE level (percentage of inhibition)” value ([1]; test compound 100 μmol) is reported as 30%. For the same compound, the “IICR level (percentage of inhibition)” value ([2]; test compound 10 μmol) was 0%, the “IICR level (percentage of inhibition)” value ([2]; test compound 30 μmol) was 20% and the “IICR level (percentage of inhibition)” value ([2]; test compound 100 μmol) was 60%.
